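Each compound was tested at five concentrations against cells in 96-well plates for 48 hours. Abbreviation: GI50, concentration required for 50% inhibition of growth.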 The source made the active and inactive calls. No stated cut-off is given here; in the data, active = GI50 up to about 1.1 µM and inactive = higher.
How the values were obtained:
Test in all cases: growth of human tumour cells (NCI), 48 h
SK-MEL-28 = tested on: SK-MEL-28
CAKI-1 = tested on: CAKI-1
BT-549 = tested on: BT-549
HCC 2998 = tested on: HCC 2998
NCI-H226 = tested on: NCI-H226
TK-10 = tested on: TK-10
NCI-H23 = tested on: NCI-H23
NCI/ADR-RES = tested on: NCI/ADR-RES
ACHN = tested on: ACHN
CCRF-CEM = tested on: CCRF-CEM
RXF 393 = tested on: RXF 393
SN12C = tested on: SN12C
NCI-H522 = tested on: NCI-H522
OVCAR-3 = tested on: OVCAR-3
KM12 = tested on: KM12
SNB-75 = tested on: SNB-75
MDA-MB-231 = tested on: MDA-MB-231
M14 = tested on: M14
EKVX = tested on: EKVX
SF-268 = tested on: SF-268
PC-3 = tested on: PC-3
Hs-578T = tested on: Hs-578T
SK-MEL-2 = tested on: SK-MEL-2
SF-539 = tested on: SF-539
K562 = tested on: K562
HL-60 = tested on: HL-60
U-251 = tested on: U-251
MCF7 = tested on: MCF7
UACC-62 = tested on: UACC-62
DU-145 = tested on: DU-145
T47D = tested on: T47D
MDA-MB-435 = tested on: MDA-MB-435
HOP-92 = tested on: HOP-92
IGROV-1 = tested on: IGROV-1
MOLT-4 = tested on: MOLT-4
HCT-15 = tested on: HCT-15
SR = tested on: SR
A549 = tested on: A549
LOX IMVI = tested on: LOX IMVI
OVCAR-8 = tested on: OVCAR-8
COLO 205 = tested on: COLO 205
SNB-19 = tested on: SNB-19
HT-29 = tested on: HT-29
HOP-62 = tested on: HOP-62
SF-295 = tested on: SF-295
OVCAR-4 = tested on: OVCAR-4
SK-OV-3 = tested on: SK-OV-3
OVCAR-5 = tested on: OVCAR-5
MDA-N = tested on: MDA-N
786-0 = tested on: 786-0
NCI-H460 = tested on: NCI-H460
SW-620 = tested on: SW-620
UO-31 = tested on: UO-31
RPMI-8226 = tested on: RPMI-8226
Malme-3M = tested on: Malme-3M
HCT-116 = tested on: HCT-116
UACC-257 = tested on: UACC-257
SK-MEL-5 = tested on: SK-MEL-5

## Cc1cccc(Nc2nc3ccccc3nc2NS(=O)(=O)c2ccccc2)c1
SK-MEL-28
  GI50: 38.7 µM (inactive)
CAKI-1
  GI50: 44.1 µM (inactive)
BT-549
  GI50: 40.1 µM (inactive)
HCC 2998
  GI50: 0.721 µM (active)
NCI-H226
  GI50: 70 µM (inactive)
TK-10
  GI50: 22.9 µM (inactive)
NCI-H23
  GI50: 18.3 µM (inactive)
NCI/ADR-RES
  GI50: 20 µM (inactive)
ACHN
  GI50: 28.9 µM (inactive)
CCRF-CEM
  GI50: 18.2 µM (inactive)
RXF 393
  GI50: 27.7 µM (inactive)
SN12C
  GI50: 22.2 µM (inactive)
NCI-H522
  GI50: 17.3 µM (inactive)
OVCAR-3
  GI50: 19 µM (inactive)
KM12
  GI50: 20.3 µM (inactive)
SNB-75
  GI50: 14.4 µM (inactive)
MDA-MB-231
  GI50: 39.5 µM (inactive)
M14
  GI50: 38.3 µM (inactive)
EKVX
  GI50: 30.5 µM (inactive)
SF-268
  GI50: 44.3 µM (inactive)
PC-3
  GI50: 14.4 µM (inactive)
Hs-578T
  GI50: 33 µM (inactive)
SK-MEL-2
  GI50: 14.3 µM (inactive)
SF-539
  GI50: 33.8 µM (inactive)
K562
  GI50: 72.1 µM (inactive)
HL-60
  GI50: 13.8 µM (inactive)
U-251
  GI50: 14.6 µM (inactive)
MCF7
  GI50: 26.5 µM (inactive)
UACC-62
  GI50: 25.6 µM (inactive)
DU-145
  GI50: 44.3 µM (inactive)
T47D
  GI50: 18.5 µM (inactive)
MDA-MB-435
  GI50: 46.6 µM (inactive)
HOP-92
  GI50: 11 µM (inactive)
IGROV-1
  GI50: 19.9 µM (inactive)
MOLT-4
  GI50: 12.6 µM (inactive)
HCT-15
  GI50: 16 µM
SR
  GI50: 25.6 µM (inactive)
A549
  GI50: 14.1 µM (inactive)
LOX IMVI
  GI50: 45.4 µM (inactive)
OVCAR-8
  GI50: 29.3 µM (inactive)
COLO 205
  GI50: 16.1 µM (inactive)
SNB-19
  GI50: 18.1 µM (inactive)
HT-29
  GI50: 26.6 µM (inactive)
HOP-62
  GI50: 27.5 µM (inactive)
SF-295
  GI50: 14.5 µM (inactive)
OVCAR-4
  GI50: 2.14 µM (inactive)
SK-OV-3
  GI50: 25.2 µM (inactive)
OVCAR-5
  GI50: > 100 µM (inactive)
MDA-N
  GI50: 42.9 µM (inactive)
786-0
  GI50: 39.4 µM (inactive)
NCI-H460
  GI50: 15.6 µM (inactive)
SW-620
  GI50: 29.6 µM (inactive)
UO-31
  GI50: 15.1 µM (inactive)
RPMI-8226
  GI50: 7.01 µM (inactive)
Malme-3M
  GI50: 17.1 µM (inactive)
HCT-116
  GI50: 27.4 µM (inactive)
UACC-257
  GI50: 26.1 µM (inactive)
SK-MEL-5
  GI50: 19.4 µM (inactive)

## COc1ccc2nc(-c3cccc(N(C)C)c3)cc(O)c2c1
SK-MEL-28
  GI50: 0.419 µM (active)
CAKI-1
  GI50: 0.327 µM (active)
BT-549
  GI50: 1.15 µM (inactive)
HCC 2998
  GI50: 0.608 µM (active)
NCI-H226
  GI50: 0.266 µM (active)
TK-10
  GI50: 4.74 µM (inactive)
NCI-H23
  GI50: 0.111 µM (active)
NCI/ADR-RES
  GI50: 0.185 µM (active)
ACHN
  GI50: 0.618 µM (active)
CCRF-CEM
  GI50: 0.255 µM (active)
RXF 393
  GI50: 0.173 µM (active)
SN12C
  GI50: 0.353 µM (active)
NCI-H522
  GI50: 0.204 µM (active)
OVCAR-3
  GI50: 0.169 µM (active)
KM12
  GI50: 0.337 µM (active)
SNB-75
  GI50: 0.299 µM (active)
MDA-MB-231
  GI50: 0.594 µM (active)
EKVX
  GI50: 1.55 µM (inactive)
SF-268
  GI50: 0.378 µM (active)
PC-3
  GI50: 0.362 µM (active)
Hs-578T
  GI50: 0.188 µM (active)
SK-MEL-2
  GI50: 0.314 µM (active)
SF-539
  GI50: 0.151 µM (active)
K562
  GI50: 0.242 µM (active)
HL-60
  GI50: 0.187 µM (active)
U-251
  GI50: 0.247 µM (active)
MCF7
  GI50: 0.413 µM (active)
UACC-62
  GI50: 0.252 µM (active)
DU-145
  GI50: 0.384 µM (active)
T47D
  GI50: > 10 µM (inactive)
MDA-MB-435
  GI50: 0.0726 µM (active)
HOP-92
  GI50: 0.469 µM (active)
IGROV-1
  GI50: 0.553 µM (active)
MOLT-4
  GI50: 0.344 µM (active)
HCT-15
  GI50: 0.317 µM
SR
  GI50: 0.142 µM (active)
A549
  GI50: 0.147 µM (active)
LOX IMVI
  GI50: 0.334 µM (active)
OVCAR-8
  GI50: 0.186 µM (active)
COLO 205
  GI50: 0.198 µM (active)
SNB-19
  GI50: 0.451 µM (active)
HT-29
  GI50: 0.198 µM (active)
SF-295
  GI50: 0.246 µM (active)
OVCAR-4
  GI50: 5.64 µM (inactive)
SK-OV-3
  GI50: 0.327 µM (active)
OVCAR-5
  GI50: 0.541 µM (active)
MDA-N
  GI50: 0.0608 µM (active)
786-0
  GI50: 0.408 µM (active)
NCI-H460
  GI50: 0.348 µM (active)
SW-620
  GI50: 0.264 µM (active)
UO-31
  GI50: 0.782 µM (active)
RPMI-8226
  GI50: 0.318 µM (active)
Malme-3M
  GI50: 0.177 µM (active)
HCT-116
  GI50: 0.101 µM (active)
UACC-257
  GI50: 0.485 µM (active)
SK-MEL-5
  GI50: 0.211 µM (active)

From ChEMBL document CHEMBL1201862, “PubChem BioAssay data set” (2004)
